Numbered stars: 1 amine (or outer) side, 2 acyl side, 3 side chain; on linkers, the order of the positions; unused ones are H or OH. Bridge positions count the residues as written; N and C are the ends. Square brackets hold non-standard residues; d marks the D form. Side chains are listed from the residue outwards. Peptide text beside a SMILES is read from it. * marks the point of attachment. C18 diacid = O=C(O)CCCCCCCCCCCCCCCCC(=O)*; γGlu = O=C(O)[C@H](CCC(=O)[*:2])N[*:1]; αMeF = C[C@](N)(Cc1ccccc1)C(=O)O; AEEA = NCCOCCOCC(=O)O; Aib = CC(C)(N)C(=O)O
Legend:
[1] = Thioflavin T fibrillation assay; type: physicochemical; details: for fibril-forming tendency: ThT assay, 1 mg/mL, pH 4.0, 37 °C, compared to pramlintide; for Time taken to detect increase in fluorescence intensity: ThT fibrillation assay, peptide 1 mg/mL in 25 mM sodium acetate buffer pH 4.0, 6 days at 37 °C with shaking, >144 h = no increase
Outline: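 Peptides at 1 mg/mL in 25 mM sodium acetate pH 4.0 with ThT (from 0.25 mM stock), incubated 6 days at 37 °C with intermittent orbital shaking at 500–750 rpm. Fluorescence (ex 444/em 480 nm) read every 30 min; value is average time to a rise in baseline-corrected signal.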

[2] = target: T1, human calcitonin receptor (hCTR) (Homo sapiens, UniProt P30988); test: cAMP production in 1321N1 cells with stable recombinant expression of human calcitonin receptor (hCTR); type: cell-based; details: cAMP, 1321N1 cells, assay buffer with 0.1% BSA; read-out: EC50 (pM) hCTR
T1 construct: expressed in transfected cells
T1 sequence (P30988 25-474): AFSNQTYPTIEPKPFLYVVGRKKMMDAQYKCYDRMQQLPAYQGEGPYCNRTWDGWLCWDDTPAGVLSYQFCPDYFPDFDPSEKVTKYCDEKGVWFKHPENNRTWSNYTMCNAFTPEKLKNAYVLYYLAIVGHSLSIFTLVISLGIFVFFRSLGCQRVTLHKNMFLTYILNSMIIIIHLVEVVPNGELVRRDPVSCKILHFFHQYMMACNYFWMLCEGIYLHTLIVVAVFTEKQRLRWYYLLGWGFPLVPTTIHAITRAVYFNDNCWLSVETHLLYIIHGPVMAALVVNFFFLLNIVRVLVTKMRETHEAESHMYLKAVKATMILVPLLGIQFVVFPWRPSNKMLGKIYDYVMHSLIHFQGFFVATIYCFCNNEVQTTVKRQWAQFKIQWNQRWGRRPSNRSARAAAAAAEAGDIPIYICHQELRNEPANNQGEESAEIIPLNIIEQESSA
Outline: (§1)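 Thawed cells in HBSS/0.1% BSA/25 mM HEPES pH 7.4 with 0.5 mM IBMX were incubated with peptides 30 min at room temperature; cAMP read by HTRF. EC50 from 4-parameter fit of % activation relative to maximal amylin or calcitonin effect.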

[3] = target: T2, human amylin receptor (calcitonin receptor co-expressed with receptor activity modifying protein, RAMP3) (hAMYR3) (Homo sapiens, UniProt O60896+P30988); test: cAMP production in 1321N1 cells with stable recombinant expression of human amylin receptor (hAMYR3); type: cell-based; details: for Ratio (selectivity hAMYR vs hCTR, ratio of EC50 values at the two receptors): EC50 hCTR / EC50 hAMYR3; for EC50: cAMP, 1321N1 cells, assay buffer with 0.1% BSA, read-out: EC50 (pM) hAMYR3
T2 construct: expressed in transfected cells
T2 sequence (P30988 25-474): T1 sequence (P30988 25-474)
T2 sequence (O60896 24-148 partner): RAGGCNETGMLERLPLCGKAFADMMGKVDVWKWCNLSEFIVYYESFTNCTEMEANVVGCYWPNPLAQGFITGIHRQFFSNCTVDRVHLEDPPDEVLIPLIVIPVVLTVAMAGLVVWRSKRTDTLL
Outline: as §1

[4] = in vivo; details: male, Sprague-Dawley, rat, 20 nmol/kg

fibril-forming tendency [1]	Time taken to detect increase in fluorescence intensity [1]	EC50 [2]	Ratio (selectivity hAMYR vs hCTR, ratio of EC50 values at the two receptors) [3]	EC50 [3]	half-life ([4]; iv)	half-life ([4]; sc)	Compound
increases the fibril-forming tendency	7 h	3600 pM	21	174 pM	10.5 h	9.4 h	CC[C@H](C)[C@H](NC(=O)[C@@H]1CCCN1C(=O)CNC(=O)[C@H](Cc1ccccc1)NC(=O)[C@H](CC(N)=O)NC(=O)[C@H](CC(N)=O)NC(=O)[C@H](CO)NC(=O)[C@H](CO)NC(=O)[C@H](Cc1c[nH]cn1)NC(=O)[C@@H](NC(=O)[C@H](CC(C)C)NC(=O)[C@H](Cc1ccccc1)NC(=O)[C@H](CC(N)=O)NC(=O)[C@H](C)NC(=O)[C@H](CC(C)C)NC(=O)[C@H](CCCNC(=N)N)NC(=O)[C@H](CCC(N)=O)NC(=O)[C@@H](NC(=O)[C@H](C)NC(=O)[C@@H]1CSSC[C@H](NC(=O)[C@@H](N)CCCCNC(=O)CC[C@H](NC(=O)CC[C@H](NC(=O)CCCCCCCCCCCCCCCCC(=O)O)C(=O)O)C(=O)O)C(=O)N[C@@H](CC(N)=O)C(=O)N[C@@H]([C@@H](C)O)C(=O)N[C@@H](C)C(=O)N[C@@H]([C@@H](C)O)C(=O)N1)[C@@H](C)O)C(C)C)C(=O)N[C@@H](CC(C)C)C(=O)N1CCC[C@H]1C(=O)N1CCC[C@H]1C(=O)N[C@H](C(=O)N[C@@H](CC(N)=O)C(=O)N[C@H](C(=O)NCC(=O)N[C@@H](CO)C(=O)N[C@@H](CC(N)=O)C(=O)N[C@H](C(=O)N[C@@H](Cc1ccc(O)cc1)C(N)=O)[C@@H](C)O)C(C)C)[C@@H](C)O [Peptide 5] (H-K([γGlu-γGlu-C18 diacid])CNTATCATQRLANFLVHSSNNFGPILPPTNVGSNTY-NH2; disulfide 2-7; N-terminus assumed)
increases the fibril-forming tendency	15 h	310 pM	5	68 pM	9.5 h	17.6 h	CC[C@H](C)[C@H](NC(=O)[C@@H]1CCCN1C(=O)CNC(=O)[C@H](Cc1ccccc1)NC(=O)[C@H](CC(N)=O)NC(=O)[C@H](CC(N)=O)NC(=O)[C@H](CO)NC(=O)[C@H](CO)NC(=O)[C@H](Cc1c[nH]cn1)NC(=O)[C@@H](NC(=O)[C@H](CC(C)C)NC(=O)[C@H](Cc1ccccc1)NC(=O)[C@H](CC(N)=O)NC(=O)[C@H](C)NC(=O)[C@H](CC(C)C)NC(=O)[C@H](CCCNC(=N)N)NC(=O)[C@H](CCC(N)=O)NC(=O)[C@@H](NC(=O)[C@H](C)NC(=O)[C@@H]1CSSC[C@H](NC(=O)[C@@H](N)CCCCNC(=O)COCCOCCNC(=O)COCCOCCNC(=O)CC[C@H](NC(=O)CCCCCCCCCCCCCCCCC(=O)O)C(=O)O)C(=O)N[C@@H](CC(N)=O)C(=O)N[C@@H]([C@@H](C)O)C(=O)N[C@@H](C)C(=O)N[C@@H]([C@@H](C)O)C(=O)N1)[C@@H](C)O)C(C)C)C(=O)N[C@@H](CC(C)C)C(=O)N1CCC[C@H]1C(=O)N1CCC[C@H]1C(=O)N[C@H](C(=O)N[C@@H](CC(N)=O)C(=O)N[C@H](C(=O)NCC(=O)N[C@@H](CO)C(=O)N[C@@H](CC(N)=O)C(=O)N[C@H](C(=O)N[C@@H](Cc1ccc(O)cc1)C(N)=O)[C@@H](C)O)C(C)C)[C@@H](C)O [Peptide 6] (H-K([AEEA-AEEA-γGlu-C18 diacid])CNTATCATQRLANFLVHSSNNFGPILPPTNVGSNTY-NH2; disulfide 2-7; N-terminus assumed)
–	>144 h	3410 pM	25	136 pM	8 h	8.1 h	CC[C@H](C)[C@H](NC(=O)[C@@H]1CCCN1C(=O)CNC(=O)[C@](C)(Cc1ccccc1)NC(=O)[C@H](CC(N)=O)NC(=O)[C@H](CC(N)=O)NC(=O)[C@H](CO)NC(=O)[C@H](CO)NC(=O)[C@H](Cc1c[nH]cn1)NC(=O)[C@@H](NC(=O)[C@H](CC(C)C)NC(=O)[C@H](Cc1ccccc1)NC(=O)[C@H](CC(N)=O)NC(=O)[C@H](C)NC(=O)[C@H](CC(C)C)NC(=O)[C@H](CCCNC(=N)N)NC(=O)[C@H](CCC(N)=O)NC(=O)[C@@H](NC(=O)[C@H](C)NC(=O)[C@@H]1CSSC[C@H](NC(=O)[C@@H](N)CCCCNC(=O)CC[C@H](NC(=O)CC[C@H](NC(=O)CCCCCCCCCCCCCCCCC(=O)O)C(=O)O)C(=O)O)C(=O)N[C@@H](CC(N)=O)C(=O)N[C@@H]([C@@H](C)O)C(=O)N[C@@H](C)C(=O)N[C@@H]([C@@H](C)O)C(=O)N1)[C@@H](C)O)C(C)C)C(=O)N[C@@H](CC(C)C)C(=O)N1CCC[C@H]1C(=O)N1CCC[C@H]1C(=O)N[C@H](C(=O)N[C@@H](CC(N)=O)C(=O)N[C@H](C(=O)NCC(=O)N[C@@H](CO)C(=O)N[C@@H](CCCNC(=N)N)C(=O)N[C@H](C(=O)N[C@@H](Cc1ccc(O)cc1)C(N)=O)[C@@H](C)O)C(C)C)[C@@H](C)O [Peptide 21, K(γE-γE-C18diacid)[CNTATC]ATQRLANFLVHSSNN(αMePhe)GPILPPTNVGSRTY-amide] (H-K([γGlu-γGlu-C18 diacid])CNTATCATQRLANFLVHSSNN[αMeF]GPILPPTNVGSRTY-NH2; disulfide 2-7; N-terminus assumed)
–	>144 h	1250 pM	12	105 pM	6.9 h	8 h	CC[C@H](C)[C@H](NC(=O)[C@@H]1CCCN1C(=O)CNC(=O)[C@](C)(Cc1ccccc1)NC(=O)[C@H](CC(N)=O)NC(=O)[C@H](CC(N)=O)NC(=O)[C@H](CO)NC(=O)[C@H](CO)NC(=O)[C@H](Cc1c[nH]cn1)NC(=O)[C@@H](NC(=O)[C@H](CC(C)C)NC(=O)[C@H](Cc1ccccc1)NC(=O)[C@H](CC(N)=O)NC(=O)[C@H](C)NC(=O)[C@H](CC(C)C)NC(=O)[C@H](CCCNC(=N)N)NC(=O)[C@H](CCC(N)=O)NC(=O)[C@@H](NC(=O)[C@H](C)NC(=O)[C@@H]1CSSC[C@H](NC(=O)[C@@H](N)CCCCNC(=O)CC[C@H](NC(=O)CCCCCCCCCCCCCCCCC(=O)O)C(=O)O)C(=O)N[C@@H](CC(N)=O)C(=O)N[C@@H]([C@@H](C)O)C(=O)N[C@@H](C)C(=O)N[C@@H]([C@@H](C)O)C(=O)N1)[C@@H](C)O)C(C)C)C(=O)N[C@@H](CC(C)C)C(=O)N1CCC[C@H]1C(=O)N1CCC[C@H]1C(=O)N[C@H](C(=O)N[C@@H](CCCNC(=N)N)C(=O)N[C@H](C(=O)NCC(=O)N[C@@H](CO)C(=O)N[C@@H](CC(N)=O)C(=O)N[C@H](C(=O)N[C@@H](Cc1ccc(O)cc1)C(N)=O)[C@@H](C)O)C(C)C)[C@@H](C)O [Peptide 25, K(γE-C18diacid)[CNTATC]ATQRLANFLVHSSNN(αMePhe)GPILPPTRVGSNTY-amide] (H-K([γGlu-C18 diacid])CNTATCATQRLANFLVHSSNN[αMeF]GPILPPTRVGSNTY-NH2; disulfide 2-7)
–	>144 h	5400 pM	23	235 pM	10.3 h	12.5 h	CC[C@H](C)[C@H](NC(=O)[C@@H]1CCCN1C(=O)CNC(=O)[C@H](Cc1ccccc1)NC(=O)[C@H](CC(N)=O)NC(=O)C(C)(C)NC(=O)[C@H](CO)NC(=O)[C@H](CO)NC(=O)[C@H](Cc1c[nH]cn1)NC(=O)[C@@H](NC(=O)[C@H](CC(C)C)NC(=O)[C@H](Cc1ccccc1)NC(=O)[C@H](CC(N)=O)NC(=O)[C@H](C)NC(=O)[C@H](CC(C)C)NC(=O)[C@H](CCCNC(=N)N)NC(=O)[C@H](CCC(N)=O)NC(=O)[C@@H](NC(=O)[C@H](C)NC(=O)[C@@H]1CSSC[C@H](NC(=O)[C@H](CCCCN)NC(=O)[C@@H](N)CCCCNC(=O)CC[C@H](NC(=O)CC[C@H](NC(=O)CCCCCCCCCCCCCCCCC(=O)O)C(=O)O)C(=O)O)C(=O)N[C@@H](CC(N)=O)C(=O)N[C@@H]([C@@H](C)O)C(=O)N[C@@H](C)C(=O)N[C@@H]([C@@H](C)O)C(=O)N1)[C@@H](C)O)C(C)C)C(=O)N[C@@H](CC(C)C)C(=O)N1CCC[C@H]1C(=O)N1CCC[C@H]1C(=O)N[C@H](C(=O)N[C@@H](CCCNC(=N)N)C(=O)N[C@H](C(=O)NCC(=O)N[C@@H](CO)C(=O)N[C@@H](CC(N)=O)C(=O)N[C@H](C(=O)N[C@@H](Cc1ccc(O)cc1)C(N)=O)[C@@H](C)O)C(C)C)[C@@H](C)O [Peptide 70, K(γE-γE-C18diacid)K[CNTATC]ATQRLANFLVHSS(Aib)NFGPILPPTRVGSNTY-amide] (H-K([γGlu-γGlu-C18 diacid])KCNTATCATQRLANFLVHSS[Aib]NFGPILPPTRVGSNTY-NH2; disulfide 3-8; N-terminus assumed)

From US20240067693A1, “POLYPEPTIDES AND USES THEREOF” (MEDIMMUNE LIMITED, priority 2020, published 2024)
